The target of the assay is T1, human EP1 receptor (Homo sapiens, UniProt P34995).
T1 sequence (P34995 1-402): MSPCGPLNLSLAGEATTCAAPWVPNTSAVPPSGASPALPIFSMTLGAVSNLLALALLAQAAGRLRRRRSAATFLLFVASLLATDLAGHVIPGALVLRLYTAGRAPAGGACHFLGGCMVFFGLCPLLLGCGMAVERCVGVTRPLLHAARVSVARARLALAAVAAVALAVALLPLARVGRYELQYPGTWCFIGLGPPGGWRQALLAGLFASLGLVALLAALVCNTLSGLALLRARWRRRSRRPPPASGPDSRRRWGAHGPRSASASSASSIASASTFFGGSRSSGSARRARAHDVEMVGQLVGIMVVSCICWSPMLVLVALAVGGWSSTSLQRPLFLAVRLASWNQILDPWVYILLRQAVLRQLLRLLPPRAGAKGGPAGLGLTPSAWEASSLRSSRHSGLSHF
In words: human EP1 calcium mobilisation assay. It is filed as cell-based. More on the design: expressed in transfected cells. To be noted: CHO-K1 cells, antagonism of PGE2; averages of a number of experiments; read-out: functional pKi value (human EP1 calcium mobilisation assay) (converted). The procedure: Briefly, the antagonist properties of compounds are assessed by their ability to inhibit the mobilisation of intracellular calcium ([Ca^2+]i) in response to activation of EP1 or EP3 receptors by the natural agonist hormone prostaglandin E2 (PGE2). Increasing concentrations of antagonist reduce the amount of calcium that a given concentration of PGE2 can mobilise. The net effect is to displace the PGE2 concentration-effect curve to higher concentrations of PGE2. The amount of calcium produced is assessed using a calcium-sensitive fluorescent dye such as Fluo-4, AM and a suitable instrument such as a Fluorimetric Imaging Plate Reader (FLIPR). Increasing amounts of [Ca^2+]i produced by receptor activation increase the amount of fluorescence produced by the dye and give rise to an increasing signal. The signal may be detected using the FLIPR instrument and the data generated may be analysed with suitable curve-fitting software.
The human EP1 or EP3 calcium mobilisation assay (hereafter referred to as ‘the calcium assay’) utilises Chinese hamster ovary-K1 (CHO-K1) cells into which a stable (PCIN; BioTechniques 20 (1996): 102-110) vector containing either EP1 or EP3 cDNA has previously been transfected. Cells are cultured in suitable flasks containing culture medium such as DMEM:F-12 supplemented with 10% v/v foetal calf serum, 2 mM L-glutamine, 0.25 mg/ml geneticin, 100 μM flurbiprofen and 10 μg/ml puromycin.
For assay, cells are harvested using a proprietary reagent that dislodges cells such as Versene. Cells are re-suspended in a suitable quantity of fresh culture media for introduction into a 384-well plate. Following incubation for 24 hours at 37° C. the culture media is replaced with a medium containing Fluo-4 and the detergent pluronic acid, and a further incubation takes place. Concentrations of compounds are then added to the plate in order to construct concentration-effect curves. This may be performed on the FLIPR in order to assess the agonist properties of the compounds. Concentrations of PGE2 are then added to the plate in order to assess the antagonist properties of the compounds.
The data so generated may be analysed by means of a computerised curve-fitting routine. The concentration of compound that elicits a half-maximal inhibition of the calcium mobilisation induced by PGE2 (pIC50) may then be estimated.
A general note: A change in cytosolic calcium serves as a functional read-out for many receptors and channels.

Molecules are shown by their SMILES. Where a name gives a salt, the structure may show the parent alone. Bounds are passed on as bounds.

As to `CC(C)c1cc2cc(Cl)cc(Cc3ccc(-c4nc5cc(CN(C)C)ccc5[nH]4)o3)c2o1` [Example 11, 1-[2-(5-{[5-Chloro-2-(1-methylethyl)-1-benzofuran-7-yl]methyl}-2-furanyl)-1H-benzimidazol-5-yl]-N,N-dimethylmethanamine Hydrochloride], the Ki is at most 316 nM. As for `CC(C)c1cc2cc(Cl)cc(Cc3ccc(-c4nc5cc(CN6CCCC6)ccc5[nH]4)o3)c2o1` [Example 12, 2-(5-{[5-Chloro-2-(1-methylethyl)-1-benzofuran-7-yl]methyl}-2-furanyl)-5-(1-pyrrolidinylmethyl)-1H-benzimidazole Hydrochloride], the Ki was at most 316 nM. Then `CC(C)c1cc2cc(Cl)cc(Cc3ccc(-c4nc5cc(CN6CCN(C)CC6)ccc5[nH]4)o3)c2o1` [Example 13, 2-(5-{[5-Chloro-2-(1-methylethyl)-1-benzofuran-7-yl]methyl}-2-furanyl)-5-[(4-methyl-1-piperazinyl)methyl]-1H-benzimidazole Hydrochloride], with at most 316 nM; and `Cc1cc(C(=O)O)nn1Cc1cccc2cc(C(C)C)oc12` [Example 20, 5-Methyl-1-{[2-(1-methylethyl)-1-benzofuran-7-yl]methyl}-1H-pyrazole-3-carboxylic Acid], with at most 316 nM; and `Cc1cc(C(=O)NN2CCOCC2)nn1Cc1cc(Cl)cc2cc(C3CC3)oc12` [Example 31, 1-[(5-Chloro-2-cyclopropyl-1-benzofuran-7-yl)methyl]-5-methyl-N-4-morpholinyl-1H-pyrazole-3-carboxamide], with at most 316 nM. The figure for `Cc1cc(C(=O)NC2CCNCC2)nn1Cc1cc(Cl)cc2cc(C(C)C)oc12` [Example 33, 1-{[5-chloro-2-(1-methylethyl)-1-benzofuran-7-yl]methyl}-5-methyl-N-4-piperidinyl-1H-pyrazole-3-carboxamide Hydrochloride] is 1000 to 1580 nM. Take `CCN1CCC(CNC(=O)c2cc(C)n(Cc3cc(Cl)cc4cc(C(C)C)oc34)n2)CC1` [Example 36, 1-{[5-chloro-2-(1-methylethyl)-1-beenzofuran-7-yl]methyl}-N-[(1-ethyl-4-piperidinyl)methyl]-5-methyl-1H-pyrazole-3-carboxamidehydrochloride]: the Ki was 1000 to 1580 nM. For `CC(C)c1cc2cc(Cl)cc(Cc3cccc(C(N)=O)n3)c2o1` [Example 40, 6-{[5-Chloro-2-(1-methylethyl)-1-benzofuran-7-yl]methyl}-2-pyridinecarboxamide], the Ki is at most 316 nM. Then `Cc1cc(C(N)=O)nn1Cc1cc(C#N)cc2cc(C(C)C)oc12` [Example 41, 1-{[5-Cyano-2-(1-methylethyl)-1-benzofuran-7-yl]methyl}-5-methyl-1H-pyrazole-3-carboxamide], with at most 316 nM; and `CC(C)c1cc2cc(Cl)cc(Cc3ccc(C(=O)NN4CCOCC4)o3)c2o1` [Example 42, 5-{[5-Chloro-2-(1-methylethyl)-1-benzofuran-7-yl]methyl}-N-4-morpholinyl-2-furancarboxamide], with at most 316 nM; and `CC(C)c1cc2cc(Cl)cc(Cc3ccc(C(=O)NN4CCCCC4)o3)c2o1` [Example 43, 5-{[5-Chloro-2-(1-methylethyl)-1-benzofuran-7-yl]methyl}-N-1-piperidinyl-2-furancarboxamide], with at most 316 nM.

On to `Cc1cc(C(=O)NN2CCOCC2)nn1Cc1cc(C#N)cc2cc(C(C)C)oc12` [Example 45, 1-{[5-Cyano-2-(1-methylethyl)-1-benzofuran-7-yl]methyl}-5-methyl-N-4-morpholinyl-1H-pyrazole-3-carboxamide], for which the Ki is at most 316 nM. Then `CC(C)c1cc2cc(Cl)cc(Cc3ccc(C(=O)Nc4ccc(CN5CCOCC5)cc4)o3)c2o1` [Example 54, 5-{[5-Chloro-2-(1-methylethyl)-1-benzofuran-7-yl]methyl}-N-[4-(4-morpholinylmethyl)phenyl]-2-furancarboxamide Hydrochloride], with at most 316 nM.

Source of the values: patent publication US20090099169A1, “Benzofuran Compounds As EP1 Receptor Antagonists” (GLAXO GROUP LIMITED, priority 2006, published 2009).
